According to US20250049798A1, “WEE1 PROTEIN KINASE DEGRADATION AGENT AND USE THEREOF” (HANGZHOU GLUBIO PHARMACEUTICAL CO. LTD., priority 2021, published 2025):
pIC50: −log10 of the molar value. Like-named read-outs stand apart in the source and are kept apart here.

What was measured:
HiBiT tagged Wee1 = HiBiT tagged Wee1 (Homo sapiens, UniProt P30291); assay: Wee1 protein degradation assay (HiBiT assay); type: cell-based; details: engineered HT-1080 cells, 20 hours; for Dmax: maximum percentage of Wee1 degradation, read-out: HiBiT Wee1: Dmax
[1] = Pharmacokinetic study in mice (IV and PO); type: in vivo; details: male CD1 mice; for F: PO (10 mg/kg) vs IV (2 mg/kg); for AUC(0-inf) / clearance / half-life / Cmax: mouse, plasma; for half-life: read-out: T½ (converted)
Procedure: Objective: the objective of this study was to determine the pharmacokinetics of test compound following intravenous (IV) and oral (PO) administration to male CD1 mice.
Materials: Male CD1 mouse (20-30 g, 6-8 weeks, Zhejiang Vital River Laboratory Animal Technology Co., Ltd.).
The CD1 mice were administered with the test article intravenously via tail vein at 2 mg/kg or orally at 10 mg/kg. The animals had free access to food and water. After dose administration, blood was collected from the dorsal metatarsal vein at 5 min (0.0833 h, IV only), 15 min (0.25 h), 30 min (0.5 h), 60 min (1 h), 2 h, 4 h, 6 h, 8 h and 24 h. Blood samples were placed in an anticoagulant tube with EDTA-K2, mixed adequately and centrifuged at 4° C., 4000 g for 5 minutes to get the plasma. The plasma samples were stored at −75±15° C. until analyzed by LC-MS/MS. The PK parameters were calculated using non-compartmental model by Phoenix WinNonlin 6.1 (Linear/log trapezoidal).

NCI-H1048 cells = assay: NCI-H1048 cell proliferation assay (CTG assay); type: cell-based; details: 120 hours, read-out: CTG cellular assay_H1048: IC50
In short: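 NCI-H1048 small cell lung cancer cells (RPMI-1640, 10% FBS) were exposed to 10-point half-log compound dilutions from 10 μM to 0.316 nM for 120 h at 37° C., 5% CO2. Viability was read by CellTiter-Glo luminescence and normalized to DMSO as percent of control. EC50 and DC50 were fitted with a four-parameter logistic model.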

Sequence of HiBiT tagged Wee1 (P30291 whole entry): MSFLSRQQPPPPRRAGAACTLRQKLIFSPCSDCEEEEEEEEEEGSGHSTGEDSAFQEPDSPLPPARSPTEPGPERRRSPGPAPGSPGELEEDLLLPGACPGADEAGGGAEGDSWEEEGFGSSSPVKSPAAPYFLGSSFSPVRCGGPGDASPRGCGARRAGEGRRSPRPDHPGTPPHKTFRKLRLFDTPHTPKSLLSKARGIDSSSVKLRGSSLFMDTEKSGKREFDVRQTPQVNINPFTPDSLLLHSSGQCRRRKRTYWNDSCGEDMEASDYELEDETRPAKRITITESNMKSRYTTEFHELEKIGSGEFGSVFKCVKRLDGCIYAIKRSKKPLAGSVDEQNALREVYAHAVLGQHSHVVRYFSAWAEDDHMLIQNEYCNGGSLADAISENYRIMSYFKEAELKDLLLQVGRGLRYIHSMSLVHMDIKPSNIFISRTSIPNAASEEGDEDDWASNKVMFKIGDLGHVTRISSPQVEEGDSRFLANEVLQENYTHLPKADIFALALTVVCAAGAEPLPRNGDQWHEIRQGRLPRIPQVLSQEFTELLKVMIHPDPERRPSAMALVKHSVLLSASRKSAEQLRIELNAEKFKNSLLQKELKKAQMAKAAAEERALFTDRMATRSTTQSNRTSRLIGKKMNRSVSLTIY

Structure (SMILES) | DC50 (HiBiT tagged Wee1) [nM] | Dmax (HiBiT tagged Wee1) [%] | pIC50 (NCI-H1048 cells; Homo sapiens) | further results
C=CCn1c(=O)c2cnc(Nc3ccc(N4CCN(CC5CCN(c6ccc7c(N8CCC(=O)NC8=O)nn(C)c7c6)CC5)[C@H](C)C4)cc3)nc2n1-c1ccc2c(n1)[C@@](O)(CC)CC2 [Compound 174] | < 100 | 50 to 75 | ≥ 7.60 | –
C=CCn1c(=O)c2cnc(Nc3ccc(N4CCN(CC5CCN(c6ccc(NC7CCC(=O)NC7=O)cc6F)CC5)[C@@H](C)C4)cc3)nc2n1-c1ccc2c(n1)[C@@](O)(CC)CC2 (stereo partly shown) [Compound 162] | < 100 | > 75 | ≥ 7.60 | –
C=CCn1c(=O)c2cnc(Nc3ccc(N4CCC(CN5CCN(c6ccc(NC7CCC(=O)NC7=O)cc6F)CC5)CC4)cc3)nc2n1-c1cccc(C(C)(C)O)n1 (single isomer, unassigned) [Compound 100-A] | < 100 | > 75 | ≥ 7.60 | –
C=CCn1c(=O)c2cnc(Nc3ccc(N4CCN(C5CCN(c6ccc(NC7CCC(=O)NC7=O)cc6F)CC5)CC4)cc3)nc2n1-c1cccc(C(C)(C)O)n1 (stereo not shown) [Compound 93] | < 100 | > 75 | ≥ 7.60 | –
C=CCn1c(=O)c2cnc(Nc3ccc(N4CCN(C5CCN(c6ncc(NC7CCC(=O)NC7=O)cc6F)CC5)CC4)cc3)nc2n1-c1ccc2c(n1)[C@@](O)(CC)CC2 (stereo partly shown) [Compound 182] | < 100 | > 75 | ≥ 7.60 | –
C=CCn1c(=O)c2cnc(Nc3ccc(N4CCC(CN5CCC(c6ccc7c(C8CCC(=O)NC8=O)nn(C)c7c6)CC5)CC4)cc3)nc2n1-c1cccc(C(C)(C)O)n1 (stereo not shown) [Compound 96] | < 100 | 50 to 75 | ≥ 7.60 | –
O=C1CCC(N2C(=O)c3cccc(NCCCN4CCN(c5ccc(Nc6ncc7c(=O)n(-c8c(Cl)cccc8Cl)c8nccn8c7n6)cc5)CC4)c3C2=O)C(=O)N1 (stereo not shown) [Compound 2] | < 100 | 50 to 75 | 7.00 to 7.60 | –
C=CCn1c(=O)c2cnc(Nc3ccc(N4CCC(N5CCC(c6ccc(NC7CCC(=O)NC7=O)cc6F)CC5)CC4)cc3)nc2n1-c1cccc(C(C)(C)O)n1 (stereo not shown) [Compound 82] | < 100 | > 75 | ≥ 7.60 | –
C=CCn1c(=O)c2cnc(Nc3ccc(N4CCN(CC5CCN(c6ccc(NC7CCC(=O)NC7=O)cc6F)CC5)CC4)cc3)nc2n1-c1ccc2c(n1)[C@@](O)(CC)CC2 (single isomer, unassigned) [Compound 150-A] | < 100 | > 75 | ≥ 7.60 | –
C=CCn1c(=O)c2cnc(Nc3ccc(N4CCN(CC5CCN(c6ccc7c(N8CCC(=O)NC8=O)nn(C)c7c6)CC5)CC4)cc3)nc2n1-c1ccc2c(n1)[C@@](O)(CC)CC2 [Compound 114] | < 100 | > 75 | ≥ 7.60 | –
C=CCn1c(=O)c2cnc(Nc3ccc(N4CCN(CC5CCN(c6cc7c(cc6F)c(N6CCC(=O)NC6=O)nn7C)CC5)CC4)nc3)nc2n1-c1ccc2c(n1)[C@@](O)(CC)CC2 [Compound 194] | < 100 | > 75 | ≥ 7.60 | –
C=CCn1c(=O)c2cnc(Nc3ccc(N4CCN(CC5CCN(c6ccc(NC7CCC(=O)NC7=O)cc6F)CC5)CC4)cc3)nc2n1-c1ccc2c(n1)[C@](C)(O)CC2 (single isomer, unassigned) [Compound 152-B] | < 100 | > 75 | ≥ 7.60 | –
C=CCn1c(=O)c2cnc(Nc3ccc(N4CCC(CN5CCN(c6ccc(NC7CCC(=O)NC7=O)cc6F)CC5)CC4)cc3)nc2n1-c1cccc(C(C)(C)O)n1 (single isomer, unassigned) [Compound 100-B] | < 100 | – | – | pIC50 (NCI-H1048 cells): ≥ 7.60
C=CCn1c(=O)c2cnc(Nc3ccc(N4CCN(CC5CCN(c6ccc(NC7CCC(=O)NC7=O)cn6)CC5)CC4)cc3)nc2n1-c1cccc(C(C)(C)O)n1 (stereo not shown) [Compound 87] | < 100 | > 75 | ≥ 7.60 | –

Continued, in another order:

DC50 (HiBiT tagged Wee1) [nM] | Dmax (HiBiT tagged Wee1) [%] | pIC50 (NCI-H1048 cells; Homo sapiens) | Structure (SMILES) | further results
< 100 | > 75 | ≥ 7.60 | C=CCn1c(=O)c2cnc(Nc3ccc(N4CCC(CN5CCC(c6ccc(NC7CCC(=O)NC7=O)cc6)CC5)CC4)cc3)nc2n1-c1cccc(C(C)(C)O)n1 (stereo not shown) [Compound 72] | F [1]: 80.2%; AUC(0-inf) ([1]; IV (2 mg/kg)): 1130 ng·h/mL; clearance ([1]; IV (2 mg/kg)): 29.5 mL/min/kg; half-life ([1]; IV (2 mg/kg)): 2.81 h; AUC(0-inf) ([1]; PO (10 mg/kg)): 4530 ng·h/mL; Cmax ([1]; PO (10 mg/kg)): 550 ng/mL; half-life ([1]; PO (10 mg/kg)): 2.85 h
< 100 | > 75 | ≥ 7.60 | C=CCn1c(=O)c2cnc(Nc3ccc(N4CCC(CN5CCN(c6ccc(NC7CCC(=O)NC7=O)cc6F)CC5)CC4)cc3)nc2n1-c1cccc(C(C)(C)O)n1 (stereo not shown) [Compound 71] | F [1]: 75.4%; AUC(0-inf) ([1]; IV (2 mg/kg)): 6730 ng·h/mL; clearance ([1]; IV (2 mg/kg)): 4.95 mL/min/kg; half-life ([1]; IV (2 mg/kg)): 2.79 h; AUC(0-inf) ([1]; PO (10 mg/kg)): 25400 ng·h/mL; Cmax ([1]; PO (10 mg/kg)): 2730 ng/mL; half-life ([1]; PO (10 mg/kg)): 3 h
< 100 | > 75 | ≥ 7.60 | C=CCn1c(=O)c2cnc(Nc3ccc(N4CCC(CN5CCC(c6ccc7c(N8CCC(=O)NC8=O)nn(C)c7c6)CC5)CC4)cc3)nc2n1-c1cccc(C(C)(C)O)n1 [Compound 95] | –
< 100 | 50 to 75 | ≥ 7.60 | C=CCn1c(=O)c2cnc(Nc3ccc(C4CCN(CC5CCN(c6ccc(NC7CCC(=O)NC7=O)cc6)CC5)CC4)cc3)nc2n1-c1cccc(C(C)(C)O)n1 (stereo not shown) [Compound 85] | –
< 100 | > 75 | ≥ 7.60 | C=CCn1c(=O)c2cnc(Nc3ccc(N4CCN(CC5CCN(c6ncc(NC7CCC(=O)NC7=O)cc6F)CC5)[C@@H](C)C4)cc3)nc2n1-c1ccc2c(n1)[C@@](O)(CC)CC2 (stereo partly shown) [Compound 192] | –
< 100 | 50 to 75 | 7.00 to 7.60 | C=CCn1c(=O)c2cnc(Nc3ccc(C4CCN(CC5CN(c6ccc7c(c6)C(=O)N(C6CCC(=O)NC6=O)C7=O)C5)CC4)cc3)nc2n1-c1cccc(C(C)(C)O)n1 (stereo not shown) [Compound 9] | –
< 100 | > 75 | ≥ 7.60 | C=CCn1c(=O)c2cnc(Nc3ccc(N4CCN(CC5CCN(c6ccc(NC7CCC(=O)NC7=O)cc6F)CC5)CC4)nc3)nc2n1-c1ccc2c(n1)[C@@](O)(CC)CC2 (stereo partly shown) [Compound 187] | –
< 100 | 50 to 75 | ≥ 7.60 | C=CCn1c(=O)c2cnc(Nc3ccc(N4CCN(CCCCc5cccc6c5n(C)c(=O)n6C5CCC(=O)NC5=O)CC4)cc3)nc2n1-c1cccc(C(C)(C)O)n1 (stereo not shown) [Compound 51] | –
< 100 | > 75 | ≥ 7.60 | C=CCn1c(=O)c2cnc(Nc3ccc(N4CCC(CN5CCN(c6ccc(NC7CCC(=O)NC7=O)cc6)CC5)CC4)cc3)nc2n1-c1cccc(C(C)(C)O)n1 (stereo not shown) [Compound 92] | –
< 100 | > 75 | ≥ 7.60 | C=CCn1c(=O)c2cnc(Nc3ccc(N4CCN(CC5CCN(c6ccc7c(N8CCC(=O)NC8=O)nn(C)c7c6F)CC5)CC4)cc3)nc2n1-c1ccc2c(n1)[C@](C)(O)CC2 [Compound 200] | –
< 100 | 50 to 75 | ≥ 7.60 | C=CCn1c(=O)c2cnc(Nc3ccc(N4CCC(CN5CCC(c6ccc7c(c6)n(C)c(=O)n7C6CCC(=O)NC6=O)CC5)CC4)cc3)nc2n1-c1cccc(C(C)(C)O)n1 (stereo not shown) [Compound 52] | –
< 100 | 50 to 75 | ≥ 7.60 | C=CCn1c(=O)c2cnc(Nc3ccc(C4CCN(CC5CCN(c6cccc7c6n(C)c(=O)n7C6CCC(=O)NC6=O)CC5)CC4)cc3)nc2n1-c1ccc2c(n1)[C@@](O)(CC)CC2 (stereo partly shown) [Compound 108] | –
< 100 | > 75 | ≥ 7.60 | C=CCn1c(=O)c2cnc(Nc3ccc(N4CCN(C5CC6(C5)CN(c5ncc(NC7CCC(=O)NC7=O)cc5F)C6)CC4)cc3)nc2n1-c1ccc2c(n1)[C@@](O)(CC)CC2 (stereo partly shown) [Compound 185] | –
< 100 | > 75 | ≥ 7.60 | C=CCn1c(=O)c2cnc(Nc3ccc(N4CCC(CN5CCC(c6ccc(NC7CCC(=O)NC7=O)cc6F)CC5)CC4)cc3)nc2n1-c1cccc(C(C)(C)O)n1 (stereo not shown) [Compound 81] | –
